Assay results taken from patent US7598377B2, “Inhibition of phosphoinositide 3-kinase β” (AstraZeneca AB, priority 2002, dated 2009).
Where two headings read alike, the source gives them in different places.

Assays:
[1] = test system: neutrophils; assay: Neutrophil ROS response (fmlp, DHR, FACS); type: cell-based, human; settings: fmlp stimulation, read-out: ROS release from neutrophils Example 14 IC50/
Procedure: 3 ml of preservative free whole blood was placed in a 50 ml conical tube. 48 ml of erythrocyte lysing solution and gently mixed by inversion for 10 min at 25° C. on a haematology nutator and subsequently centrifuged for 10 min at 350×g at 25° C. in a table top centrifuge. The Leukocyte rich pellet was resuspended in phosphate buffered saline supplemented with […] (PBS-gel) and centrifuged as above. The Leukocyte pellet was washed once with Hanks' balanced salt solution (HBSS) and resuspended at a final cell count of 2×10^6/ml and used immediately.
Reactive Oxygen Species (ROS) generation is one of the hall-marks of neutrophil activation. A number of chemokines and cytokines potentiate ROS generation by neutrophils. […] ROS generation was measured by monitoring the oxidation of intracellular dihydrorhodamine 123 (DHR) via fluorescence activated cell sorting (FACS) by modification of the method of Robinson et al., (pp 9.7.5-9.7.9 in Curr. Protocols in Cytometry (1997)). A Leukocyte suspension was bulk loaded with 2 μl of 50 mM DHR per ml cells ([…]) and incubated at 37° C. for 12 min. […] Fluorescence base-line data was calibrated using these gated control neutrophils. Stimulated cell samples were analysed and linear green fluorescence (DHR) was monitored for 5000 gated neutrophils from each sample. […]

[2] = test system: platelet rich plasma; assay: CD9-antibody induced platelet aggregation of platelet rich plasma; type: cell-based; settings: read-out: Platelet aggregation v. CD9 antibody Example 10 IC50/
Procedure: The inhibitory effect of TGX286 and KN327 on platelet aggregation induced by the antibody CD9 was examined in platelet rich plasma (PRP). A suspension of PRP was incubated with 20-100 nM TGX286 or control buffer (0.1% DMSO) and treated with an aliquot of the antibody. Aggregation under stirring was monitored in a four channel aggregometer for 10 minutes. The level of aggregation was measured as the change in light transmission through the sample cell.

[3] = test system: carotid artery cyclic flow reductions in rat; assay: Animal model of internal carotid artery occlusion (Folts); type: in vivo; settings: 14.0 mg/kg via the jugular vein
Text: This model is used to investigate the effects of antithrombotic drugs on clotting time in vivo in response to a crash injury followed by arterial stenosis.
The carotid artery of an anesthetized rat is dissected out, and an electromagnetic flow probe is placed around the artery to measure blood flow. Proximal to the flow probe, the artery is clamped with surgical forceps covered with silicone tubing to cause intimal and medial damage to the vessel wall. A ligature, or plastic cylinder of appropriate inside diameter is laced around the artery to produce a 70% reduction in arterial diameter.
Platelets aggregate in the area of the stenosed and damaged arterial vessel, gradually forming an occlusive platelet thrombus, seen as a decrease in blood flow. As the thrombus forms, blood pressure increases, causing the thrombus to fragment and embolize distal to the stenosed site. […] This causes a sudden restoration of blood flow. Platelets again aggregate in the area of the stenosed and damaged arterial vessel, repeating the thrombus-embolization pattern. This acute, platelet-mediated thrombus formation, followed by embolization, causes Cyclic Flow Reductions (CFR) in blood flow. Once a rat produces regular CFRs, an anti-thrombotic compound or vehicle control is administered via the jugular vein.

[4] = molecular target: T1, P110 γ (Homo sapiens, UniProt P48736); assay: Isoform selective in vitro PI3K enzyme assay (Example 13), γ recombinant; type: biochemical; settings: read-out: P110 γ IC50s
T1 construct: made in house
T1 sequence (P48736 whole entry, species assumed, canonical isoform): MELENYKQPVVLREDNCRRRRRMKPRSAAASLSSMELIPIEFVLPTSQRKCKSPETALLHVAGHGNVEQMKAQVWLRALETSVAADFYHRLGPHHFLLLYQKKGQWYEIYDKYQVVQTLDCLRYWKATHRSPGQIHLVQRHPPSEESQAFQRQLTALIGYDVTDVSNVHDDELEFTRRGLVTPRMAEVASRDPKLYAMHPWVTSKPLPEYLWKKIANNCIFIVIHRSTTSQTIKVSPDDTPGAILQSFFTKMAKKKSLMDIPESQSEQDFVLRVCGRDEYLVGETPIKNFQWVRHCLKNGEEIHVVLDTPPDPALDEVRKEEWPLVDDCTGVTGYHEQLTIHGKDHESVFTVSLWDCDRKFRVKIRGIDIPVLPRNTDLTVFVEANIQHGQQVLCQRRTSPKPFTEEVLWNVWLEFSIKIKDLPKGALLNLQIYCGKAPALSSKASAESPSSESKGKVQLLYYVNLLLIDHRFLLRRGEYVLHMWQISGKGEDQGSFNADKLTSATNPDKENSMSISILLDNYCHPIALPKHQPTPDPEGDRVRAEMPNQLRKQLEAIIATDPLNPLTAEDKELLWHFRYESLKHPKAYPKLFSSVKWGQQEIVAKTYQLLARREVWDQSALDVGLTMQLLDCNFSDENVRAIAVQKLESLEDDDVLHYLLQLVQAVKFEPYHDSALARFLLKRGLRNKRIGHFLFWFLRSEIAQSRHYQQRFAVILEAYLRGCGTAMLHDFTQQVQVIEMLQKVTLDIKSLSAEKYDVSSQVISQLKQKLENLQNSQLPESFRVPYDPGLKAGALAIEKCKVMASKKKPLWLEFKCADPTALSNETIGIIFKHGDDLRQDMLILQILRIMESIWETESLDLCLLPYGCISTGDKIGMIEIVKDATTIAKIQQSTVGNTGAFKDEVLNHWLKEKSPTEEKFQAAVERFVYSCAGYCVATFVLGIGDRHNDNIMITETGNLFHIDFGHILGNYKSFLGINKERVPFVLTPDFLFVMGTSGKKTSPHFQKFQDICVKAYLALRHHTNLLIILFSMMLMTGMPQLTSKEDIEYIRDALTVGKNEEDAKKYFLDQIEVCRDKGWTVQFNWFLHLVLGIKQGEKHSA
Procedure: (§1) In vitro enzyme assays were conducted as a primary screen to determine drug candidate isoform affinity and specificity. The α and β isoforms of the PI3K were immunoprecipitated from a platelet lysate, using an antibodies obtained from Santa Cruz Biotechnology, that recognized specific regions of p110α (sc-7174) and β (sc-603) isoforms. The γ isoform was produced as a recombinant protein in the Kinacia laboratories. […] Standard phosphorylation assays using phosphatidylinositol and ^32P were used to measure the enzyme activity in the immunoprecipates in the presence or absence of an inhibitor. Enzyme activity was determined over a range of inhibitor concentrations to establish an IC50 value.

[5] = test system: PI 3-kinase immunoprecipitated from human platelets (p85/110 form); assay: In vitro PI 3-kinase assay (Example 8), Platelet IP (p85); type: biochemical; settings: read-out: Platelet IP (p85) IC50s
Procedure: The effect of pyridine-substituted compounds on PI 3-kinase activity was determined using an in vitro PI 3-kinase assay. This assay was performed using PI 3-kinase immunoprecipitated from human platelets as the enzyme and PI as the substrate. The PI 3-kinase activity was quantitated by measuring the enzymatic incorporation of [^32P] into PI, forming PI([^32P]-3)P, as previously described (Susa et al., 1992, The Journal of Biological Chemistry 267(32):22951-22956.
Washed human platelets were lysed in Triton X-100 lysis buffer (10 mM Tris, pH 7.4, 1% Triton X-100, 2 mM EDTA, 1 mM PMSF) for 30 minutes. The Triton X-100 insoluble fraction was removed by centrifugation of the cell lysates at 15,000 g for 10 minutes. PI 3-kinase was immunoprecipitated by mixing 500 μg of the cell lysate with 1 μg of a rabbit anti-rat antibody against the p85/110 form of PI 3-kinase and 30 μl of 50% Protein A-sepharose beads for 2 hours at 4° C. The Protein A-sepharose-bound PI 3-kinase was isolated by pelleting the beads at 15,000 g for 5 seconds, and washing three times with ice-cold Triton X-100 lysis buffer followed by four washes with PI 3-kinase assay buffer (20 mM HEPES, pH 7.4, 1 mM EGTA, 5 mM MgCl2).
PI stored in CHCl3 was dried under N2, resuspended in the lipid buffer (50 mM HEPES, pH 7.2, 1 mM EDTA) at a final concentration of 330 μg/ml, and sonicated for 6 minutes on ice. PI([^32P]-3)P was generated by mixing the immunoprecipitated PI 3-kinase for 20 minutes with 40 μl of the PI, 10 μl of ATP (1 mM) and ^32P-r-ATP (0.5 μCi, 1 μCi/nmol), 10 μl of 10× kinase buffer, in a final assay volume of 100 μl adjusted with H2O. TGX-was preincubated with the PI 3-kinase for 5 minutes prior to the addition of ATP. The assay was terminated with 100 μl of 1 N HCl, and the PI([^32P]-3)P product extracted with 200 μl chloroform:methanol (1:1) and 500 μl 2 M KCl. The PI([^32P]-3)P in the chloroform phase was resolved by thin layer chromatography using a solvent system containing CHCl3:MeOH:HAC:H2O (43:38:5:7) (v:v:v:v), and visualized by autoradiography. The PI([^32P]-3)P spots were then scraped off from the TLC plates, deacylated with 1 ml methylamine:butanol:methanol (42:9:47) (v:v:v) for 4 hours at 53° C., and quantitated using a liquid scintillation counter (LKB 1209 RackBETA).

[6] = molecular target: T2, P110 δ (Homo sapiens, UniProt O00329); assay: Isoform selective in vitro PI3K enzyme assay (Example 13), δ from THP-1 cells; type: biochemical; settings: read-out: P110 δ IC50s
T2 construct: The δ isoform was immunoprecipitated from THP-1 cells; endogenous in cells; host or cells: THP-1 cells (immunoprecipitated with antibody sc-7176)
T2 sequence (O00329 whole entry, canonical isoform): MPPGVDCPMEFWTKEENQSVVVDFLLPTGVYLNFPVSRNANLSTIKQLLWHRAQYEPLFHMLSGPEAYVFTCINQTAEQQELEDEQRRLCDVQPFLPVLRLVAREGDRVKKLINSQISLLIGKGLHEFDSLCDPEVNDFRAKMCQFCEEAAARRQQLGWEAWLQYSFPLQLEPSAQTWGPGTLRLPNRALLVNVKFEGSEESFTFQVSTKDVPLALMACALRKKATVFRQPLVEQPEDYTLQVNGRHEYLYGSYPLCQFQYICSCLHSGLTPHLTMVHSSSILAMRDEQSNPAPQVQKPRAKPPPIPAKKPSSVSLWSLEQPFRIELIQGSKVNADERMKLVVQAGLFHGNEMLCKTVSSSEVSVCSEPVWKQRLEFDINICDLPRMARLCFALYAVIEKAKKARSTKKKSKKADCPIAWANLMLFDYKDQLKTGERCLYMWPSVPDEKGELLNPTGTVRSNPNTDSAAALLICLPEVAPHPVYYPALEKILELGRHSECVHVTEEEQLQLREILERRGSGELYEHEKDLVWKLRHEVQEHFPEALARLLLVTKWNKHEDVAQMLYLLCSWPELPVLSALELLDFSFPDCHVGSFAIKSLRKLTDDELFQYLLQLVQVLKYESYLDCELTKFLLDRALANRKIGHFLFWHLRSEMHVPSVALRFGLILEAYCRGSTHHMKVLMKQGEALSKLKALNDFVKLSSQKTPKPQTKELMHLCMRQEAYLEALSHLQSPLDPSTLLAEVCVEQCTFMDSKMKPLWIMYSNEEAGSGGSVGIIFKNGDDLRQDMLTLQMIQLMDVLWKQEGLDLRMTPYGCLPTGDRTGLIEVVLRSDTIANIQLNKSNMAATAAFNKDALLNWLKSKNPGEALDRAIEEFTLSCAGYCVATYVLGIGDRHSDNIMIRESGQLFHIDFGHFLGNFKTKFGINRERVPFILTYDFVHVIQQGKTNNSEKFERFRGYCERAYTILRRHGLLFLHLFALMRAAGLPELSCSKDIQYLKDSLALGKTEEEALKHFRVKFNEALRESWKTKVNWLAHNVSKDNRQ
T2 sequence (P27986 whole entry partner, canonical isoform): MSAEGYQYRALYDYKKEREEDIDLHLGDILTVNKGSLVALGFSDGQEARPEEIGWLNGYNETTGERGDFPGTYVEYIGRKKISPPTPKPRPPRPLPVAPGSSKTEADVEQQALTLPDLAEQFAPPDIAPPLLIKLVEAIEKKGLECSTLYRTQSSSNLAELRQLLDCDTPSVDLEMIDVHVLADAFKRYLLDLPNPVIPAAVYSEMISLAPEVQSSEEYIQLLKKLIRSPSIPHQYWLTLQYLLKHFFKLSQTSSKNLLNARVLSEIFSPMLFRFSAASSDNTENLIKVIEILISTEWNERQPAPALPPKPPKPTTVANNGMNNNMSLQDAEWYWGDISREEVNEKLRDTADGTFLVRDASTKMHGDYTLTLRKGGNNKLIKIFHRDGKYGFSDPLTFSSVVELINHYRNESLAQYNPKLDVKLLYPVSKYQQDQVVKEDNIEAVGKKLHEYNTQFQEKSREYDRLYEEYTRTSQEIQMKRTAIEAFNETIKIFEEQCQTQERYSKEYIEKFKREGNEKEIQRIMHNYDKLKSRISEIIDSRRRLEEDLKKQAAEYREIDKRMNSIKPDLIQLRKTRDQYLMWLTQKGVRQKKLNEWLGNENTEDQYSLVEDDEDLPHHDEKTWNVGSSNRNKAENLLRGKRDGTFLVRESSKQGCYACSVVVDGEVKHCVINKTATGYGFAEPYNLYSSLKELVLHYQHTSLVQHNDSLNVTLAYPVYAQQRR
Procedure: as §1, with “The α and β isoforms of the PI3K were immunoprecipitated from a platelet lysate, using an antibodies obtained from Santa Cruz Biotechnology, that recognized specific regions of p110α (sc-7174) and β (sc-603) isoforms.” left out

[7] = test system: platelet thrombus formation in citrated whole blood; assay: Platelet thrombus formation under flow (Example 12, 600 s^−1); type: cell-based; settings: read-out: Inhibition of Thrombus formation Example 12 IC50/
Procedure: Blood was perfused through von Willebrand factor—(vWf) coated microcapillary tubes for 2 minutes at 600 s^−1. Non-adherent cells were removed by perfusion of buffer for 2 minutes at 600 s^−1 and any adherent erythrocytes lysed through treatment with 1% ammonium oxalate. Adherent platelets were then lysed through addition of 1% Triton X-100 and lactate dehydrogenase (LDH) levels (U/L) analysed by spectrophotometry.

[8] = test system: platelets on immobilized vWf; assay: In vitro flow studies: platelet calcium flux and adhesion on immobilized vWf; type: cell-based; settings: vWf matrix, shear rate gradient up to 10,000 s^−1 over 1 s
Procedure: The use of an in vitro-flow based adhesion assay enables us to simultaneously analyze platelet adhesion dynamics and activation (by monitoring cytosolic calcium flux) on immobilized von Willebrand factor (vWf). Briefly, isolated platelets are perfused through vWf (100 μg/ml) coated microcapillary tubes and analysis of cytosolic calcium flux conducted in real-time by confocal microscopy.
Washed platelets (1.5×10^9) suspended in PWB were incubated with the calcium indicator dyes, Oregon Green 488 BAPTA-1, AM (1 μM) and Fura Red, AM (1.25 μM), for 30 min at 37° C. Platelets were washed twice with PWB prior to being resuspended in Tyrode's buffer containing 1 mM calcium.
For static adhesion assays, platelets were allowed to settle on the surface of vWf-coated coverslips for 30 min at 37° C. For flow assays, platelets were either perfused over a vWf-coated microcapillary tube at a constant shear rate of 600, 1800 or 10,000 s^−1 or allowed to settle on the surface of a vWf-coated microcapillary tube prior to being accelerated through a shear gradient of 10,000 s^−1 over a 1 s interval. Real time platelet calcium flux in individual platelets was monitored at 1 s intervals over the 30 min incubation period or at 0.586 s intervals for up to 175 s for static and flow-based assays, respectively.

[9] = test system: T3, various isoforms of PI3K; settings: measured IC50 stated to agree with previously reported values; read-out: IC50 against the various isoforms of PI3K; cited from earlier work
T3 construct: The γ isoform was produced as a recombinant protein in the Kinacia laboratories

[10] = test system: U937 cells; assay: Cell proliferation assay; type: cell-based; settings: Homo sapiens, U-937; read-out: Anti-proliferative activity v. U937 cells Example 16 IC50/
Text: The cytotoxic activity of the compounds was monitored over four days by counting cell number, and determining cell viability using a colorimetric assay of metabolic activity.

[11] = molecular target: T4, P110 β isoform (Homo sapiens, UniProt P42338); assay: Isoform selective in vitro PI3K enzyme assay (Example 13), β; type: biochemical
T4 construct: The α and β isoforms of the PI3K were immunoprecipitated from a platelet lysate; from tissue; host or cells: washed platelets (lysate, immunoprecipitated with anti-p110β antibody)
T4 sequence (P42338 whole entry, canonical isoform): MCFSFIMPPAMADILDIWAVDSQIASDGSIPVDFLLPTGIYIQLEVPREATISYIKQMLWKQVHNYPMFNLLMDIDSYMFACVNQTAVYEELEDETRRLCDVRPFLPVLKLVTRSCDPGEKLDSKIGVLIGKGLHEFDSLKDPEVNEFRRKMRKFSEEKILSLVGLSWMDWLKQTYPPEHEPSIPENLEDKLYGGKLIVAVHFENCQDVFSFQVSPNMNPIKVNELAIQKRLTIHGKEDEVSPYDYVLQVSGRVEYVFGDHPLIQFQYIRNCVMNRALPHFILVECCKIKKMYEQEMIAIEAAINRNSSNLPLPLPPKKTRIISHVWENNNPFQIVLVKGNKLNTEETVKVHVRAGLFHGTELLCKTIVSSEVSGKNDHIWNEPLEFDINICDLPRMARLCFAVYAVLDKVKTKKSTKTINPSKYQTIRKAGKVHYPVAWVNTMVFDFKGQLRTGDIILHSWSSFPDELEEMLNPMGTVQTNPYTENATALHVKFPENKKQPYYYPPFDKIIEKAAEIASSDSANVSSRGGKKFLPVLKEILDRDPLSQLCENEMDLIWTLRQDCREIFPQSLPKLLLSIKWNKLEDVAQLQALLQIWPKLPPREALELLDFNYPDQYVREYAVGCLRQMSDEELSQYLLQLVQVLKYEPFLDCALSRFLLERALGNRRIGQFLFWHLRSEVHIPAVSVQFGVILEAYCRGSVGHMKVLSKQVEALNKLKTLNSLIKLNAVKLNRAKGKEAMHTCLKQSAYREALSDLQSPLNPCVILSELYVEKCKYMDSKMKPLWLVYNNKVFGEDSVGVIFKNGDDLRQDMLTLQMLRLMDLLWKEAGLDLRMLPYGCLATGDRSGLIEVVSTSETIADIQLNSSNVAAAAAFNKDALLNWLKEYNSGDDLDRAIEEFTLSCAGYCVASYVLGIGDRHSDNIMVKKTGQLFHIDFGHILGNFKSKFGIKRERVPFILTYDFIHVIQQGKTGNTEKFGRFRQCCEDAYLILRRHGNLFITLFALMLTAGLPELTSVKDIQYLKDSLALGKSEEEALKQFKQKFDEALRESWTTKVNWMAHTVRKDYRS
T4 sequence (P27986 whole entry partner, canonical isoform): as the sequence (P27986 whole entry partner, canonical isoform) above
Procedure: In vitro enzyme assays were conducted as a primary screen to determine drug candidate isoform affinity and specificity. The α and β isoforms of the PI3K were immunoprecipitated from a platelet lysate, using an antibodies obtained from Santa Cruz Biotechnology, that recognized specific regions of p110α (sc-7174) and β (sc-603) isoforms. The γ isoform was produced as a recombinant protein in the Kinacia laboratories. The δ isoform was immunoprecipitated from THP-1 cells in a similar manner using a δ isoform specific antibody (sc-7176). Standard phosphorylation assays using phosphatidylinositol and ^32P were used to measure the enzyme activity in the immunoprecipates in the presence or absence of an inhibitor. Enzyme activity was determined over a range of inhibitor concentrations to establish an IC50 value.

[12] = test system: washed platelets; assay: Flow-based reconstitution assay (platelet adhesion to vWf); type: cell-based; settings: 1800 s^−1
Procedure: The platelets and reconstituted red blood cells were perfused through vWf-coated glass microslides for 1 minute at a shear rate of 1800 s^−1. Non-adherent cells were removed by washing for 10 minutes at 1800 s^−1 and the number of adherent platelet were quantitated and expressed as the mean±SEM.

Row | Compound | IC50 [1] [nM] | IC50 [2] [nM] | treated animals returned to baseline within 10 minutes [3] [%] | IC50 [4] [nM] | IC50 [5] [nM] | IC50 [6] [nM] | IC50 [7] [nM] | platelet responses to accelerated shear [8] | IC50 [9] [nM] | IC50 ([1]; Homo sapiens, Neutrophil) [nM] | IC50 [10] [nM] | IC50 [11] [nM] | decrease in platelet adhesion ([12]; 10 nM) [%] | decrease in platelet adhesion ([12]; 25 nM) [%] | decrease in platelet adhesion ([12]; 50 nM) [%] | IC50 ([7]; Platelet) [nM]
1 | 8-(1-(2-aminophenylamino)ethyl-2-(4-pyridinyl)-4H-benzopyran-1-one [KN327] | 78 | 200 | 80 | 15000 | 20 | 500 | 250 |  |  |  |  |  |  |  |  | 
2 | O=c1cc(N2CCOCC2)oc2c(-c3ccccc3)cccc12 [LY294002, 8-phenyl-2-(4-morpholinyl)-4H-benzopyran-4-one, reference compound] |  |  |  |  |  |  |  | eliminates platelet responses to accelerated shear | 500 to 1500 |  |  |  |  |  |  | 
3 | Cc1cc(C(C)Nc2ccccc2)c2oc(-c3ccncc3)cc(=O)c2c1 (stereo not shown) [TGX-286, 8-1-(phenylamino)ethyl-6-methyl-2-(4-pyridinyl)-4H-1-benzopyran-4-one] |  | 100 | 80 |  | 2 |  |  |  |  | 5 | 5000 | 2 | 51 | 67 | 86 | 500
